The nature of one series: Solubility test in water. It counts as physicochemical. The note with it: deionized water, thermodynamic from solid. Here is the method: For the solubility test in water, a sample of less than 10 mg was first precisely weighed and taken, and placed into a vial, to which 50 μl of deionized water was added, shaking for 30 seconds and ultrasonic shaking for 1 minute were carried out, and these processes were repeated several times. The water solubility was calculated by measuring the amount of water used to dissolve all the samples.

The nature of series [1]: Stability confirmation test (impurity formation during storage under severe conditions, liquid chromatography). In kind it is physicochemical. Here is the method: The stability test was carried out for the acid addition salts prepared in the Examples to evaluate the degree to which impurities were formed during storage under severe conditions (moisture-proof condition and high-humidity exposure condition). The results of the stability test under the moisture-proof condition were shown in Table 2 below, and the results of the stability test under the high-humidity exposure condition were shown in Table 3 below. For the stability test, vials containing 10 mg of each sample which was precisely weighed and taken were prepared in the planned quantity, and they were stored by dividing into the moisture-proof condition (60° C. and less than 10% relative humidity) and under the high-humidity exposure condition (60° C. and 95% relative humidity). However, under the high-humidity exposure condition, a stopper of the vial was not used to keep so that the sample is in sufficient contact with a moisture in the air. At a fixed point of time after the initiation of the test, two vials per point of time were taken (number of samples per test n=2). 10 ml of methanol was added to each vial to dissolve the sample, which was then centrifuged. The resulting supernatant was analyzed using a liquid chromatography. The peak area was determined by integration for all detected peaks, and the relative peak area for the main component and the total impurity was calculated and expressed as an average value.

Setting [2] is: high-humidity exposure condition (60° C. and 95% relative humidity), After 1 week.
[3] abbreviates: high-humidity exposure condition (60° C. and 95% relative humidity), After 2 weeks.
[4] abbreviates: high-humidity exposure condition (60° C. and 95% relative humidity), After 4 weeks.
Setting [5] is: high-humidity exposure condition (60° C. and 95% relative humidity), Initial.
Setting [6] is: moisture-proof condition (60° C. and less than 10% relative humidity), After 2 weeks.
[7] abbreviates: moisture-proof condition (60° C. and less than 10% relative humidity), After 4 weeks.
Setting [8] is: moisture-proof condition (60° C. and less than 10% relative humidity), Initial.

As a reminder, the solubility is the concentration that dissolves in the medium under given conditions. With `CNCc1cn(S(=O)(=O)c2cccc(F)c2)c(-c2ccc(F)cc2F)c1OC.O=C(O)C(O)C(O)C(=O)O` [Example 3, 1-(5-(2,4-difluorophenyl)-1-((3-fluorophenyl)sulfonyl)-4-methoxy-1H-pyrrol-3-yl)-N-methylmethanamine tartrate], the solubility in the series “Solubility test in water” came out at 6900 µg/mL. Also, the “Peak area of main component (%)” value in series [1] (setting [2]) is listed as 99.48%; in series [1] (setting [3]), 99.43%; in series [1] (setting [4]), 99.23%; in series [1] (setting [5]) it was 99.52%; in series [1] (setting [6]) it was 99.54%; in series [1] (setting [7]) it was 99.48%. The “Peak area of main component (%)” value in series [1] (setting [8]) was 99.52%. The “Peak area of total impurities (%)” value in series [1] (setting [2]) stood at 0.52%; in series [1] (setting [3]) it was 0.57%; in series [1] (setting [4]), 0.77%; in series [1] (setting [5]), 0.48%; in series [1] (setting [6]), 0.46%; in series [1] (setting [7]), 0.52%. For the same molecule, the “Peak area of total impurities (%)” value in series [1] (setting [8]) turned out to be 0.48%.
On to `CNCc1cn(S(=O)(=O)c2cccc(F)c2)c(-c2ccc(F)cc2F)c1OC.Cl` [Example 1, 1-(5-(2,4-difluorophenyl)-1-((3-fluorophenyl)sulfonyl)-4-methoxy-1H-pyrrol-3-yl)-N-methylmethanamine hydrochloride], for which the solubility in “Solubility test in water” was 11100 µg/mL. The “Peak area of main component (%)” value in series [1] (setting [2]) stood at 99.81%; in series [1] (setting [3]), 99.80%; in series [1] (setting [4]), 99.80%; in series [1] (setting [5]) it was 99.82%; in series [1] (setting [6]), 99.80%; in series [1] (setting [7]), 99.80%. The “Peak area of main component (%)” value in series [1] (setting [8]) came to 99.82%. For the same molecule, the “Peak area of total impurities (%)” value in series [1] (setting [2]) was 0.19%; in series [1] (setting [3]), 0.20%; in series [1] (setting [4]) it was 0.20%; in series [1] (setting [5]), 0.18%; in series [1] (setting [6]), 0.19%; in series [1] (setting [7]), 0.20%. In addition, in series [1] (setting [8]), the “Peak area of total impurities (%)” value came to 0.18%.
In “Solubility test in water”, `CNCc1cn(S(=O)(=O)c2cccc(F)c2)c(-c2ccc(F)cc2F)c1OC.O=C(O)/C=C/C(=O)O` [Example 4, 1-(5-(2,4-difluorophenyl)-1-((3-fluorophenyl)sulfonyl)-4-methoxy-1H-pyrrol-3-yl)-N-methylmethanamine fumarate] showed a solubility of 1730 to 2600 µg/mL. The “Peak area of main component (%)” value in series [1] (setting [2]) is 99.40%; in series [1] (setting [3]), 99.32%; in series [1] (setting [4]) it was 99.30%; in series [1] (setting [5]) it was 99.38%; in series [1] (setting [6]), 99.36%; in series [1] (setting [7]), 99.37%. The “Peak area of main component (%)” value in series [1] (setting [8]) is on record as 99.38%. Moreover, the “Peak area of total impurities (%)” value in series [1] (setting [2]) is 0.60%; in series [1] (setting [3]), 0.68%; in series [1] (setting [4]) it was 0.70%; in series [1] (setting [5]) it was 0.62%; in series [1] (setting [6]), 0.64%; in series [1] (setting [7]), 0.63%. For the same molecule, the “Peak area of total impurities (%)” value in series [1] (setting [8]) is recorded as 0.62%.
The molecule `CNCc1cn(S(=O)(=O)c2cccc(F)c2)c(-c2ccc(F)cc2F)c1OC.O=C(O)CCC(=O)O` [Example 2, 1-(5-(2,4-difluorophenyl)-1-((3-fluorophenyl)sulfonyl)-4-methoxy-1H-pyrrol-3-yl)-N-methylmethanamine succinate] yielded a solubility in “Solubility test in water” of 7200 µg/mL. Moreover, the “Peak area of main component (%)” value is recorded as 99.56% in series [1] (setting [2]); 99.53% in series [1] (setting [3]); 99.47% in series [1] (setting [4]); 99.55% in series [1] (setting [5]); 99.61% in series [1] (setting [6]); 99.55% in series [1] (setting [7]). For the same molecule, the “Peak area of main component (%)” value in series [1] (setting [8]) was determined as 99.55%. For the same molecule, the “Peak area of total impurities (%)” value in series [1] (setting [2]) was determined as 0.44%; in series [1] (setting [3]), 0.47%; in series [1] (setting [4]) it was 0.54%; in series [1] (setting [5]), 0.45%; in series [1] (setting [6]) it was 0.39%; in series [1] (setting [7]), 0.45%. For the same molecule, in series [1] (setting [8]), the “Peak area of total impurities (%)” value worked out at 0.45%.
The molecule `CNCc1cn(S(=O)(=O)c2cccc(F)c2)c(-c2ccc(F)cc2F)c1OC` [Preparation Example, 1-(5-(2,4-difluorophenyl)-1-((3-fluorophenyl)sulfonyl)-4-methoxy-1H-pyrrol-3-yl)-N-methylmethanamine] had a solubility in “Solubility test in water” of less than 160 µg/mL.

(Values after patent US10487053B2, “Acid addition salt of 1-(5-(2,4-difluorophenyl)-1-((3-fluorophenyl)sulfonyl)-4-methoxy-1H-pyrrol-3-yl)-N-methylmethanamine” (Daewoong Pharmaceutical Co., Ltd., priority 2016, dated 2019).)
